Data as given in ChEMBL document CHEMBL1201862, “PubChem BioAssay data set” (2004).
The source made the active and inactive calls.

What was measured:
[1] = target: T1, Estrogen receptor beta (Homo sapiens, UniProt Q92731);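 note: recombinant ER-beta bound to coactivator SRC1 peptide in presence of estradiol agonist; inhibitors block coactivator peptide binding and lower the FRET signal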
[2] = target: T1, Estrogen receptor beta; assay: ERβ–SRC-3 coactivator interaction inhibitors, confirmation, orthogonal assay, biochemical, ELISA, streptavidin-HRP readout (AID 1060)
[3] = target: T2, Carboxy-terminal domain RNA polymerase II polypeptide A small phosphatase 1 (Homo sapiens, UniProt Q9GZU7); assay: inhibitors of CTDSP1, concentration-response testing, biochemical assay, absorbance-based, actives from ultra-high-throughput screening (AID 540297); assay type: functional
T2 sequence (Q9GZU7 whole entry): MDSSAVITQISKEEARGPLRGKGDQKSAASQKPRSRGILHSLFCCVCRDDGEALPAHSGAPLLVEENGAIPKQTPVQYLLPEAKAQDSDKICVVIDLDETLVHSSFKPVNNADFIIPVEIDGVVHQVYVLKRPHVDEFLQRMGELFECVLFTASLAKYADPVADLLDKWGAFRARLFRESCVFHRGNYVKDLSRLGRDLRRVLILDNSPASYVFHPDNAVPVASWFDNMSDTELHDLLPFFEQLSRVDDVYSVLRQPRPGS

[4] = target: E3 ubiquitin-protein ligase UHRF1 (Homo sapiens, UniProt Q96T88); assay: Counterscreen for inhibitors of 5-meCpG-binding domain protein 2 (MBD2): TRFRET-based biochemical high throughput dose response assay to identify inhibitors of binding of ubiquitin-like with PHD and ring finger domains 1 (UHRF1) to methylated oligonucleotide.
[5] = target: Prothrombin (Homo sapiens, UniProt P00734); assay: Thrombin 1536 HTS Dose Response Confirmation. [Related pubchem assays: 1046 (Thrombin 1536 HTS; hits were confirmed in this assay)]; assay type: functional
[6] = target: T3, Coagulation factor XII (Homo sapiens, UniProt P00748); assay type: functional;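 note: activated factor XIIa alpha cleaving a fluorogenic AMC peptide substrate; inhibitor potency from loss of enzyme activity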
T3 sequence (P00748 whole entry): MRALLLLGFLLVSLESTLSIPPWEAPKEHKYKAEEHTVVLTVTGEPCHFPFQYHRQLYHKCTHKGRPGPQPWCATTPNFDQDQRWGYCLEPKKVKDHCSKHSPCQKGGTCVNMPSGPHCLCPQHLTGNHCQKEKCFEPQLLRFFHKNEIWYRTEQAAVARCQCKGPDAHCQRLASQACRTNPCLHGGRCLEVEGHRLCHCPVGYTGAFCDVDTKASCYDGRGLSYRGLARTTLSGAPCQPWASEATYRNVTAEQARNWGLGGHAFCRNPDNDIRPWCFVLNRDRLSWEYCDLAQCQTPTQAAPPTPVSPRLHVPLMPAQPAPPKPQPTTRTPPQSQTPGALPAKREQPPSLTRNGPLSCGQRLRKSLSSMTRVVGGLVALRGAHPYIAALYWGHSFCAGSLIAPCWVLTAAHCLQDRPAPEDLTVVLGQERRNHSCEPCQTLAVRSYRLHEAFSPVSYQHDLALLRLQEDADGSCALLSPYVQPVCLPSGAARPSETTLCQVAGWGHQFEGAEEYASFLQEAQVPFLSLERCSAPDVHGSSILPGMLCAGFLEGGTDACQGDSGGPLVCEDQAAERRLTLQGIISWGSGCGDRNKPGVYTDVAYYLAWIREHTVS

[7] = target: Genome polyprotein (dengue virus type 2, UniProt P29990); assay: Dengue-2 NS5 methyltransferase inhibitors, primary screen, biochemical, confirmation dose response (AID 588689); assay type: functional
[8] = target: T4, Fatty acid synthase (Homo sapiens, UniProt P49327); assay: FAS thioesterase domain inhibitors, dose response, biochemical, endpoint fluorescence intensity, uHTS hits (AID 624327); assay type: functional;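 note: fluorescence from hydrolysis of an O-methyl fluorescein acyl ester substrate by the enzyme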
[9] = target: T4, Fatty acid synthase; assay: FAS thioesterase domain inhibitors, dose response, biochemical, kinetic fluorescence intensity (AID 624326); assay type: functional;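 note: rate of fluorescence rise from hydrolysis of a fluorogenic O-methyl fluorescein ester substrate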
[10] = target: T5, DNA repair protein RAD52 homolog (Homo sapiens, UniProt P43351); assay type: functional, biochemical
T5 sequence (P43351 whole entry): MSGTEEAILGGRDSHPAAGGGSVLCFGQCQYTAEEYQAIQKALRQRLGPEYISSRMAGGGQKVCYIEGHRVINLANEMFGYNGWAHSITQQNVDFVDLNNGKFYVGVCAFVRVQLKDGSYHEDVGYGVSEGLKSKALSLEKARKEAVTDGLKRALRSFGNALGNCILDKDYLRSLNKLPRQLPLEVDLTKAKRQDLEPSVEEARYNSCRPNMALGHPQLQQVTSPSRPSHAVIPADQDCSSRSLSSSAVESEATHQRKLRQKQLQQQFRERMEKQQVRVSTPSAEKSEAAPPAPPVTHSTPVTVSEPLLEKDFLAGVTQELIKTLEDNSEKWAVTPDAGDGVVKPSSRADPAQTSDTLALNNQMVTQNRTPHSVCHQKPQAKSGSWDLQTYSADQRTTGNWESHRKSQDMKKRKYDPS

[11] = target: T6, Potassium channel subfamily K member 9 (Homo sapiens, UniProt Q9NPC2); assay: KCNK9 (TASK3) current inhibition by patch clamp, SAR follow-up, selectivity assay for TASK1 (KCNK3) inhibitor project, cell-based, automated electrophysiology (AID 652210); assay type: functional
[12] = target: T6, Potassium channel subfamily K member 9; assay: TASK3 (KCNK9) channel inhibitors, thallium flux, SAR follow-up, selectivity assay for TASK1 inhibitor project, cell-based, FluxOR thallium flux, concentration-response (AID 652211); assay type: functional;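 note: potency is for inhibitors of the channel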
[13] = target: Potassium channel subfamily K member 3 (Rattus norvegicus, UniProt O54912); assay: SAR analysis for the identification of selective inhibitors of the two-pore domain potassium channel TASK1(KCNK3):Automated Electrophysiology.; assay type: functional
[14] = half-maximal inhibitory concentration for glucagon-like peptide-1 release, STC-1 cell line, dose-response (AID 1117345); assay type: functional, cell-based
[15] = Glucagon-like peptide 1 release potency, NCI-H716 cell line, dose-response, half-maximal inhibitory concentration (AID 1117344); assay type: functional, cell-based
[16] = tested on: P388/ADR; assay: cells; assay type: functional; conditions: Mus musculus
[17] = tested on: SN12K1; assay: cells; assay type: functional; conditions: Homo sapiens
[18] = tested on: P388; assay: cells; assay type: functional; conditions: Mus musculus
[19] = HeLa 2N DNA content increase, dose response, cell-based, IC50 (AID 1117349); assay type: functional
[20] = HeLa 4N DNA content increase, dose response, cell-based, IC50 (AID 1117351); assay type: functional

T1 sequence (Q92731 whole entry): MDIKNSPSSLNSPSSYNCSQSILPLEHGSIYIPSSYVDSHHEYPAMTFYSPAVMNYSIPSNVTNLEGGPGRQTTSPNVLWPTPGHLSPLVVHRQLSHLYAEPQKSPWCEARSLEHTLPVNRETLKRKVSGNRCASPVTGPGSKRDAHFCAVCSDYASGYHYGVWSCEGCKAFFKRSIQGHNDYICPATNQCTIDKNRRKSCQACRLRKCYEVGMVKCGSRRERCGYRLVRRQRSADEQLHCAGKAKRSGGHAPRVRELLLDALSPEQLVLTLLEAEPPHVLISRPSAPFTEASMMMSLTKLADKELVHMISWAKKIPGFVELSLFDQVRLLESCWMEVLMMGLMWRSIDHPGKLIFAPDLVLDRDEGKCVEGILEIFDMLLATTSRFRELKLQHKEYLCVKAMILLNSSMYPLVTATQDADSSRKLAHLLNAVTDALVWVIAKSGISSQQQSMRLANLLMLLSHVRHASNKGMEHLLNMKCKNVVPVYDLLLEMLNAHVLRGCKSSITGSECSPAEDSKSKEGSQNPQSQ
T4 sequence (P49327 whole entry, the tested form may be a part): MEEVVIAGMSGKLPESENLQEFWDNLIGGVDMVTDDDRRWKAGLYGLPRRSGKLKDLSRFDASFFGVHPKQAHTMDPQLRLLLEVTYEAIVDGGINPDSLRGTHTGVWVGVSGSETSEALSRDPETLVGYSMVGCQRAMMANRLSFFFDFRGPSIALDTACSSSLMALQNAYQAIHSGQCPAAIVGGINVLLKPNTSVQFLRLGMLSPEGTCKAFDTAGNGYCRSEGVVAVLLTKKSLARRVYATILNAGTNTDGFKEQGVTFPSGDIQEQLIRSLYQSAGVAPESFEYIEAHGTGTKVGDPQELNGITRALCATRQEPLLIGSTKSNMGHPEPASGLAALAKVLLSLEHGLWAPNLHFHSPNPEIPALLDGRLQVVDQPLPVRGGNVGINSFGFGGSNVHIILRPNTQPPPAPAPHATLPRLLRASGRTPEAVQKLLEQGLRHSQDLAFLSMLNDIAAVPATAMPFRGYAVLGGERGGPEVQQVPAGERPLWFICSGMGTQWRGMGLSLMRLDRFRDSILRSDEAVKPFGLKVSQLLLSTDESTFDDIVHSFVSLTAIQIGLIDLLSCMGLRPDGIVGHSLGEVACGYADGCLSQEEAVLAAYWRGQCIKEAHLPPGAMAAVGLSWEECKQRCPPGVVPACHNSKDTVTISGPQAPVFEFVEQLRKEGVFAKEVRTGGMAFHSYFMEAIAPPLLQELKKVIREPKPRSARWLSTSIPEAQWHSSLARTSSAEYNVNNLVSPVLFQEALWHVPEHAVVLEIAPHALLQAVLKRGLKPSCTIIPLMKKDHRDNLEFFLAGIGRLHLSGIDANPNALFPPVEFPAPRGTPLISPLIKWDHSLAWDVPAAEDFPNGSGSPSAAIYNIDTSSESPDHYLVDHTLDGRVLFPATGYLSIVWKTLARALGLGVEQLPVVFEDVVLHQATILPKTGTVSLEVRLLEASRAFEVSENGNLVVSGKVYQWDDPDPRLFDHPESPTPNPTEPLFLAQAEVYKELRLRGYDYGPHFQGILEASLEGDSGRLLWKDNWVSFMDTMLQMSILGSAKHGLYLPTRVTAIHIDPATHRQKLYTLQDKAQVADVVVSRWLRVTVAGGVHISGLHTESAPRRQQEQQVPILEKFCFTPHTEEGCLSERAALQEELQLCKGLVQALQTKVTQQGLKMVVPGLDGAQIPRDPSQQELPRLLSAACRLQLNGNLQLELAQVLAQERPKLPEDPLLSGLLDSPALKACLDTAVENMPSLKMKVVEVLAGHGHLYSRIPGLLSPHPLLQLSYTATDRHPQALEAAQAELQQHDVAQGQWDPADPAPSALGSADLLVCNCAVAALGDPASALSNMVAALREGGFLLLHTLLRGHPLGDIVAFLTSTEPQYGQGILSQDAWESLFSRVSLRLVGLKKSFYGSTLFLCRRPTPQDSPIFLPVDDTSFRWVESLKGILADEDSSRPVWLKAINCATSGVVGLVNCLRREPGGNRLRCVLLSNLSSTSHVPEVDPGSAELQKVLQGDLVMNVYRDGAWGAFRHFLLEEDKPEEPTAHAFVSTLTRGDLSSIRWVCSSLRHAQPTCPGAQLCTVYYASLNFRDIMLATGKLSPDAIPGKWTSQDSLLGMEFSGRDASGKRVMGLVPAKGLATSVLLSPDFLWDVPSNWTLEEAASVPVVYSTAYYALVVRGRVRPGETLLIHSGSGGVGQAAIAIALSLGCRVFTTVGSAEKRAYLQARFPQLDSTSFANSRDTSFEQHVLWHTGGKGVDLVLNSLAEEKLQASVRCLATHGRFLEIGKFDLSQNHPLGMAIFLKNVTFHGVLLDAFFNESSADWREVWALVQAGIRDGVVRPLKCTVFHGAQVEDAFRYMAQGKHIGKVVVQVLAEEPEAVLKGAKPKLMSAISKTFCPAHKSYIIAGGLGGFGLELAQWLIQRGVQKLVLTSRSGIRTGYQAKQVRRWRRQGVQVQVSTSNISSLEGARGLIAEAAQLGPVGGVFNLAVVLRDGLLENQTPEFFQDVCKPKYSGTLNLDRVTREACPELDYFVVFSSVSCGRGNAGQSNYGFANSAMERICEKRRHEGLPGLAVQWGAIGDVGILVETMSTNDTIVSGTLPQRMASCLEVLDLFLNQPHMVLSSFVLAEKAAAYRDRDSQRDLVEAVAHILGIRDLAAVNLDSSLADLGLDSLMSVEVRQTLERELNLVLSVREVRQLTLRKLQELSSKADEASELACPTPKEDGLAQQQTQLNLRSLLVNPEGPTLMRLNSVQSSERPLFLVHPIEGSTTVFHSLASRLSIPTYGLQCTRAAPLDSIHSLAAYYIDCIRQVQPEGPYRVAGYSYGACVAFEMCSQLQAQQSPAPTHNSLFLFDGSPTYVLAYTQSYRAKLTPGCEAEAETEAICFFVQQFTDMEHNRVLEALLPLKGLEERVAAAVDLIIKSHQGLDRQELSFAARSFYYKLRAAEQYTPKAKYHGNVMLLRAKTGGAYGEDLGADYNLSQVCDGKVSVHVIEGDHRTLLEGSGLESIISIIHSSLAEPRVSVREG
Sequence of E3 ubiquitin-protein ligase UHRF1 (Q96T88 whole entry, the tested form may be a part): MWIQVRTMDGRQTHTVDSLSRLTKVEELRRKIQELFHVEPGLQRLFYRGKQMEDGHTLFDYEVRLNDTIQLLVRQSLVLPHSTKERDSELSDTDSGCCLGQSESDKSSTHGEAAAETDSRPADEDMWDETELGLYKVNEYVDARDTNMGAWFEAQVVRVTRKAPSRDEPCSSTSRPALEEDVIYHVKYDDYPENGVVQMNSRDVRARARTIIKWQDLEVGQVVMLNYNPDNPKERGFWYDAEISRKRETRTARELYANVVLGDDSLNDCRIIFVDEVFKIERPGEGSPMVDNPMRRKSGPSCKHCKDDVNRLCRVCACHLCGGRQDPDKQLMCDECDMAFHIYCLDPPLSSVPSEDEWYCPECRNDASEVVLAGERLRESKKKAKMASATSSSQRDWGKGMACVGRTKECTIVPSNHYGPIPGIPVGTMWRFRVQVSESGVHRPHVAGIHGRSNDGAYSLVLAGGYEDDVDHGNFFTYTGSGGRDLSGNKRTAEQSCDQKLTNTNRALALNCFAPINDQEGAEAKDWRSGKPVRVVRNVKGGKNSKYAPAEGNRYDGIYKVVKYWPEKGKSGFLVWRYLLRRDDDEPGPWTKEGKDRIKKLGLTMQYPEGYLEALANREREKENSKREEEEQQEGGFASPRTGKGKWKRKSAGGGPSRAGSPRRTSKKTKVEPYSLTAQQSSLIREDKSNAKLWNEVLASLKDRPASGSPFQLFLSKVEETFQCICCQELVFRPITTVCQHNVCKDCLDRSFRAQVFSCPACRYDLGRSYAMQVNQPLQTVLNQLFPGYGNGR
T6 sequence (Q9NPC2 whole entry): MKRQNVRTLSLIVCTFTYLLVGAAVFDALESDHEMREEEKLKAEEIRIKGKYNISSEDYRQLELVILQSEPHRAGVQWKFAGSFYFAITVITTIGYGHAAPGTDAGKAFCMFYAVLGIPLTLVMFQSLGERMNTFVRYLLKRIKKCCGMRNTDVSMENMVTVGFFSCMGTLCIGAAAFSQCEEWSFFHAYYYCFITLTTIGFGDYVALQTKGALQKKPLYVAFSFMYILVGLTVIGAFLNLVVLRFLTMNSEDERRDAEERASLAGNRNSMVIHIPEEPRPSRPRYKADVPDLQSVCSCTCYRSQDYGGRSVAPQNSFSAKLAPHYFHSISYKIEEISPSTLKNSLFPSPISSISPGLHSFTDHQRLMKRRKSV
Sequence of Potassium channel subfamily K member 3 (O54912 whole entry, the tested form may be a part): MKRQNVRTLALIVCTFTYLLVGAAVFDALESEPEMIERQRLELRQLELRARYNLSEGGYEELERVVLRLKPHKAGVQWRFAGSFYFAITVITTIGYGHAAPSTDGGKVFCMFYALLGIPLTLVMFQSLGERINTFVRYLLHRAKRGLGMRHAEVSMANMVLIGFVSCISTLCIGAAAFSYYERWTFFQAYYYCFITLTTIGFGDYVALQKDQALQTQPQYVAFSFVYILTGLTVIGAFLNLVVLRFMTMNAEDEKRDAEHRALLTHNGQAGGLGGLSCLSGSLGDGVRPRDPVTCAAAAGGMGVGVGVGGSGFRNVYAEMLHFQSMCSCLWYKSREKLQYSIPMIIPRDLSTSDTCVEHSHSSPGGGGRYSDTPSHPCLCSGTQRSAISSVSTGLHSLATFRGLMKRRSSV

With Cc1nn(-c2ccccc2)c(C)c1NC(=O)Cc1cccs1 the IC50 [1] was 27.1 µM (active) and the IC50 [2] was 0.0611 µM (not active).

For NC(=O)c1ccc(N/C=C2/C(=O)NC(=O)N(Cc3ccco3)C2=O)cc1, the IC50 [3] was 3.45 µM (active) and the IC50 [4] was 31.3 µM (inactive).

With Cc1ccc(S(=O)(=O)ON2C(=O)c3ccccc3C2=O)c(C)c1 the IC50 [5] was 0.856 µM (active), the IC50 [6] was 8.48 µM (active) and the IC50 [7] was 96.3 µM (active). For the same compound, the IC50 [8] was 1.35 µM (active) and the IC50 [9] was 1.39 µM (active).

With Cc1cccc(NC(=O)C2CCN(S(=O)(=O)c3c(C)nn(C)c3C)CC2)n1 the IC50 [1] was > 50 µM (not active).

For CN(C)CCNC(=O)c1cccc2[nH]c(-c3ccncc3)nc12, the AC50 [10] was 10 µM (active) and the IC50 [4] was 10.6 µM (inactive).

In the case of COc1cccc(C(=O)Nc2cccc(NC(=O)c3ccccc3)c2)c1, the IC50 [11] is reported as 0.42 µM (active), the IC50 [12] is reported as 25.9 µM (active) and the IC50 [13] is reported as 0.61 µM (active).

With CC1=C(C(=O)OC(C)C)C(c2cccc([N+](=O)[O-])c2)C(C(=O)OC2CN(C(c3ccccc3)c3ccccc3)C2)=C(N)N1 (configuration not stated) [AZELNIDIPINE] the IC50 [14] was 1.23 µM (active) and the IC50 [15] was 12.8 µM (inactive).

For O=C(CCBr)N1CCN(C(=O)CCBr)CC1 [PIPOBROMAN], the GI50 [16] was 13.2 µM (inactive), the GI50 [17] was 65.3 µM (inactive) and the GI50 [18] was 14.1 µM (inactive). The IC50 [19] was > 10 µM (inactive) and the IC50 [20] was > 10 µM (inactive).
